One assay deals with pig donor heart. The experiment in a line: pig donor heart, 10 h of cold storage followed by ex vivo perfusion. The conditions noted are these: 50 μM in HTK; 10 h of cold storage on ice, 30 minutes of reperfusion ex vivo; N=4. On the procedure:
FIG. 5. […] Pig hearts were perfused with 1 L HTK solution after cross clamp. Addition 2 L of HTK with or without canrenone were perfused and stored for 10 hr on ice. Pig hearts were perfused in ex vivo system with blood and Krebs buffer (1:4, hemoglobin concentration: […]). max dp/dt (contraction) and min dp/dt (relaxation) were calculated by average the max/min dp/dt for 10 minute period after 30 minutes of reperfusion using Millar Catheter. *P<0.05, **P<0.01. N=4.

For assay [1], the system named is murine donor heart. The experiment in a line: murine donor heart, 16 h of cold storage followed by ex vivo perfusion. The following applies: 50 μM, 60 minutes of reperfusion, N=8. The text has this:
FIG. 2. […] N=8 at each time point.

The test system of assay [2] is murine donor heart. Kind of assay: murine donor heart, 16 h of cold storage followed by 24 h of heterotopic transplantation. Format: in vivo. The following applies: 50 μM in storage, n=8. On the procedure: FIG. 4. […] Donor heart was isolated and store with or without canrenone for 16 hr, then the donor hearts were heterotopic transplanted to receipt cervical region. max dp/dt (contraction) and min dp/dt (relaxation) were calculated by average the max/min dp/dt for 1 minute period after 24 hr of transplantation using Millar Catheter. *P<0.05, n=8.

Another assay deals with heart failure. The following applies: cited from earlier work.
The subject of another assay is cardiomyocytes. The conditions noted are these: IR conditions; cited from earlier work.
For assay [3], the system named is mineralocorticoid receptor (MR). The following applies: cited from earlier work.
The conditions of assay [4]: large epidemiologic studies; cited from earlier work.
Another assay relates to heart. The conditions noted are these: rats; cited from earlier work.
In a further assay the test system is donor heart. Kind of assay: donor heart function after 16 hr of cold storage followed by reperfusion (VPA). The text has this:
(§1) FIG. 7, panels A-C. […] Panels B and C.

For assay [5], the system named is heart, kidneys, lung and liver. The conditions noted are these: cited from earlier work.
A further assay concerns Irg1. Kind of assay: Irg1 expression in cold-stored donor heart. The following applies: cold storage of donor heart, VPA treatment.
Source text: as §1

Assay [6] deals with ischemia reperfusion (IR) rats. The conditions noted are these: cited from earlier work; for heart function: ischemia reperfusion (IR) rats.

For `C[C@]12CCC(=O)C=C1C=C[C@@H]1[C@@H]2CC[C@@]2(C)[C@H]1CC[C@@]21CCC(=O)O1` [Canrenone, canrenone], the figures for the “donor heart function, max dp/dt (contraction) and min dp/dt (relaxation)” value in the assay on pig donor heart, in the assay with murine donor heart [1] and in the assay on murine donor heart [2] were “improve pig donor heart function”, “improves murine donor heart function” and “improve murine donor heart function”, respectively.
With `Cc1sc2c(c1C)C(c1ccc(Cl)cc1)=N[C@@H](CC(=O)OC(C)(C)C)c1nnc(C)n1-2` [JQ-1], the heart failure result in the assay with heart failure is on record as “effectively halt heart failure”. The protection of cardiomyocytes entry in the assay on cardiomyocytes is “may protect cardiomyocytes”.
Take `CCCC(CCC)C(=O)O` [VPA, valproic acid]: the “acetylation of the mineralocorticoid receptor (MR)” value in assay [3] was “affect the acetylation of the mineralocorticoid receptor”. Besides, in assay [4], the “incidence of stroke and AMI” value was “reduce the incidence of stroke and AMI”. Besides, in the assay on heart, the “protection of the heart against AMI injury” value is reported as “protects the heart against AMI injury”. Moreover, the “effect of VPA on donor heart function with Irg1 deletion” value in the assay on donor heart (Irg1 deletion, 16 hr of cold storage followed by reperfusion) is given as “Irg1 deletion reduce the protective effect”. The “donor heart ischemic tolerance” value in the assay on donor heart (cold storage of donor heart) is “improve donor heart ischemic tolerance”. The fibrosis result in assay [5] is listed as “reduce fibrosis”. The Irg1 expression entry with Irg1 is given as “further stimulates Irg1 upregulation”.
In the case of `CC(=O)O` [acetate], in assay [6], the heart function entry is “improve heart function”.
As for `CCCCCCCC(=O)O` [octanoate], in assay [6] (160 mg/kg i.p. injected once at the time of reperfusion), the heart functional recovery entry is “significant heart functional recovery”. Moreover, the heart function entry in assay [6] is “improve heart function”.
